“Also recorded” adds a separate entry of the source. Where a name gives a salt, the structure may show the parent alone.
Tests used:
[1] = test system: Yohimbine-induced noradrenergic mediated hyperarousal in Wistar rats; experiment: Elevated plus maze, yohimbine-induced noradrenergic mediated hyperarousal (Example 2); type: in vivo; settings: 10 mg/kg, i.m., 60 min prior; yohimbine 2.5 mg/kg i.p.
Excerpt: Background: Yohimbine is an alpha 2-adrenergic receptor antagonist reported to trigger panic attacks in healthy volunteers and to exacerbate symptoms in patients with panic disorder (Charney et al., 1992 Acta Psychiatr Scand., Vol. 86 (4): 273-282). Peripheral administration of Yohimbine causes noradrenergic mediated hyperarousal in rats as assessed by the EPM paradigm.
Rationale: The drug yohimbine is a natural product used to test a specific pathway, noradrenergic-mediated hyper-arousal. It is well established that yohimbine is an alpha2-adrenergic receptor antagonist and activates the locus coeruleus (LC) and increases noradrenergic signaling (the opposite of alpha2-adrenergic agonists like dexmedetomidine and clonidine). Increased LC activity and noradrenergic signaling makes animals anxious and agitated which can be measured by using the elevated plus maze. In the elevated plus maze, rodents were in the closed arms and explored the open arms depending on their anxiety and agitation (rats and mice normally explore their environments extensively when calm). […] This behavior is correlated to increased level of anxiety caused by noradrenergic mediated hyperarousal.
Animal groups: Male: Wistar rats were used in this study and were randomly divided to different experimental groups (12 animals per group).
Study drugs: Four test drugs with different mechanisms of action linked to agitation were chosen to find drugs that are effective in reducing yohimbine-induced agitation: (1) Fluvoxamine (selective serotonin reuptake inhibitor) (2) Dextromethorphan (modulator of NMDA signals) (3) Diazepam (modulator of gamma-aminobutyric acid (GABA) as a positive control) and (4) Latrepirdine (complex pharmacology).
The test drugs were procured from Sigma or Tocris. dextromethorphan from Sigma Aldrich, Cat No. D9684; latrepirdine from Sigma Aldrich, Cat No. D6196 or Tocris Cat No. 3201 diazepam and fluvoxamine Sigma Aldrich, Cat No. F2802 or Tocris, Cat No. 1033. All these test drugs were formulated in sufficient quantity in 0.9% saline except for fluvoxamine, which was formulated in 30% ethanol in 0.9% saline.
Apparatus: Elevated Plus Maze (EPM) was used (FIG. 1). The maze consisted of two closed arms and two open arms forming a cross, with a square center platform. All visible surfaces were made of black acrylic. Each arm of the maze was placed on a support column above the floor. Antistatic black vinyl curtains used for surrounding the EPM to make an enclosure.
Study design and dosing: Yohimbine was administered by intraperitoneal injection (i.p.) at a dose of 2.5 mg/kg (30 minutes prior to study) to induce agitation and the effects were assessed 30 minutes after yohimbine injection by measuring the number of open arm entries and exploration time in the EPM. The test drugs fluvoxamine, dextromethorphan and latrepirdine dihydrochloride hydrate were administered through intramuscular route and, diazepam through intraperitoneal route into the hindleg thigh muscle of rats (60 minutes prior to study; 30 minutes prior to yohimbine administration). Diazepam was injected 30 minutes intraperitonially prior to the assay i.e. along with yohimbine administration. The study design is illustrated in FIG. 2 and table 5.
After the test drug administration, the rat was placed on the platform opposite a closed arm. The number of entries and the time spent in each arm were recorded during a 5 min period. The animal was considered as entered in arm when it placed its four paws into the arm.
Statistical analysis: Analysis of variance (ANOVA) was performed on the result data. Fisher's PLSD was used for pairwise comparisons and p value≤0.05 was considered significant.

[2] = test system: motor activity (locomotion) and sedation behavior of male Swiss albino mice; experiment: Open field test, motor activity (locomotion) and sedation (Example 7); type: in vivo; settings: i.p.
Experimental: Rationale: The spontaneous locomotor activity in terms of total distance traveled is measured in open field test. Comparatively lower distance traveled would indicate either less motor activity or sedation.
Animal groups: Swiss albino male mice (6-7 weeks old; 25-40 g weight) were distributed in 10 different experimental groups with 12 […] per group as illustrated in Table
Study drugs: The test substances (Dexmedetomidine hydrochloride and latrepirdine dihydrochloride hydrate) were dissolved in 0.9% normal saline which served as the vehicle.
Study design and dosing: Mice were brought to the laboratory and allowed to acclimatize to the environment for at least 7 days. The open field test was done in lighting conditions of 40 lux light. The mice were dosed as per the grouping in Table 10. After a post dose interval of 60 minutes, 4 mice from a group were placed in the open field and the movement was tracked for a period of 30 minutes. Once the trial was over the mice were removed from the open field and the arena was cleaned. Following this, next set of 4 mice were placed in the arena and tracked.
Statistical analysis: The distance travelled for a period of 30 minutes was analyzed in bins of 5 minutes and was compared with that of the vehicle group using one-way ANOVA followed by Dunnett's test. All statistical analyses were performed using Graph pad prism software package (Version 7 or Higher) and p value below 0.05 was considered as significant.

[3] = test system: rat forced swim test model (depressive-like behavior); experiment: Forced swim test in dark phase (Example 4); type: in vivo, Sprague Dawley rats; settings: i.m.
Excerpt: Animal groups: Male Sprague Dawley (SD) rats (8-10 weeks old) were grouped housed 2 per cage in standard animal cages with facilities for pelleted food and drinking water in polycarbonate bottle with stainless steel sipper tubes. During the experimental period, animals were housed in a single experimental room. Rats were distributed in 7 different experimental groups with 9-12 rats per group as illustrated in Table 8. Animals were distributed to different groups based on body weight data. Each experimental group was also coded so that the experimenter became unaware of the true experimental group at the time FST trial.
Animals were housed in an environment-controlled room at 22±3° C. and relative humidity of 30 to 70 percent. During the study, 12/12 light/dark cycles were maintained. Lights of the acclimatization area were switched off at 06:00 PM. All experiments were carried out at ambient temperature under dark phase of lighting (between 06:00 PM to 06:00 AM). Adequate fresh air supply of 12-15 air changes/hour was maintained in the experimental room. The maximum and minimum temperature and relative humidity in the experimental rooms was recorded once daily. The relative humidity in the experimental room was calculated daily from dry and wet bulb temperature recordings.
Swim 1 was carried out between 18:30 to 21:30.
Swim 2 was carried out between 19:30 to 21:30. Animals were administered test compounds from 18:30 onwards in staggered manner 60 minutes before FST 2.
Forced swim test was carried out in dark phase
On Day 1, animals were subjected to forced swim test training for 15 minutes (Swim 1) and on Day 2, Swim 2 was carried out post treatment.
On day 2 animals were dosed with respective treatment 60 min prior to performing FST.
Forced swim test (Swim 2) was scored manually with no video recording.
Forced swim test (FST), was used to study the depressive-like behavior in rodents. The test was carried out in transparent cylindrical glass containers measuring 46 cm in height and 20 cm in diameter.
There were 2 swim sessions, 24 h apart. The first session, Swim 1 was the pretest/training stage (15 min) and the second session, Swim 2, was the test stage (8 min).
In swim 2, first 1-minute data was excluded from analysis and rest 7 minutes data was considered. In 7 minutes, data, it was divided 5 minutes and 2 minute.
Twenty-four hours after the start of Swim 1, the test swim (Swim 2) was carried out.
Rat was placed in the water-filled cylinder for 8 min (Swim 2).
The duration of time spent immobile, swimming, and climbing was observed by an observer blind to the treatment group.
Immobility period: A rat was judged to be immobile when it remained floating in the water without struggling and was making only those movements necessary to keep its head above water.
Statistical analysis: One Way ANOVA, Dunnet's multiple comparison test was applied with respect to vehicle saline and Tukey's multiple comparison test was applied to compare the data in between the groups using GraphPad Prism version 9 software.

## COc1ccc2c(c1)[C@]13CCCC[C@@H]1[C@H](C2)N(C)CC3 [dextromethorphan]
[1]
  reduction of noradrenergic mediated hyperarousal (open arm entries and time spent): ineffective; also recorded: no effect

## COCCCC/C(=N\OCCN)c1ccc(C(F)(F)F)cc1 [fluvoxamine]
[1]
  reduction of noradrenergic mediated hyperarousal (open arm entries and time spent): ineffective; also recorded: no effect

## Cc1cccc([C@H](C)c2cnc[nH]2)c1C [dexmedetomidine hydrochloride]
[2]; 4 μg/kg, 10 μg/kg and 20 μg/kg
  distance traveled: did not show any significant reduction in distance traveled
[2]; 30 μg/kg
  distance traveled: significant reduction in distance traveled
[3]; 1 μg/kg, versus vehicle saline
  climbing time: significantly increased
  increase in swimming time: ~ 1.6%
[3]; 5 μg/kg
  swimming time: significantly increased
[3]; 1 and 5 μg/kg, versus vehicle saline
  immobility time: significantly decreased
